Measurements from patent US9757391B2 (priority 2012, dated 2017).
“Also recorded” adds a separate entry of the source.

Tests used:
morphine tolerance [1] = conditions: in vivo; cited from earlier work
mouse [2] = experiment: General pharmacological screen: depression of behaviour; assay type: in vivo; conditions: 300 mg/kg po
Description: (§1) A general pharmacological screen was performed on the neuroactive steroid alphadolone.

mouse [3] = experiment: General pharmacological screen: maximum tolerated dose, autonomic signs; assay type: in vivo; conditions: 300 mg/kg po
Description: as §1

histotoxic hypoxia = assay type: in vivo; conditions: mouse, 100 mg/kg po; ≧50% indicates significant cerebral protection
morphine tolerance [4] = conditions: rats, cited from earlier work
morphine tolerant rats = conditions: cited from earlier work

CC(=O)[C@H]1CC[C@H]2[C@@H]3CC[C@H]4C[C@H](O)CC[C@]4(C)[C@H]3CC[C@]12C [allopregnanolone]
prevention of morphine tolerance (morphine tolerance [1]): do prevent morphine tolerance

C[C@]12CC[C@H](O)CC1=CC[C@@H]1[C@@H]2CC[C@]2(C)C(=O)CC[C@@H]12 [dehydrepiandrsterone]
prevention of morphine tolerance (morphine tolerance [1]): do prevent morphine tolerance

C[C@]12CC[C@@H](O)C[C@@H]1CC[C@H]1[C@@H]3CC[C@H](C(=O)CO)[C@@]3(C)CC(=O)[C@@H]12 [alphadolone]
depression of behaviour (mouse [2]): no sedation | maximum tolerated dose autonomic signs: body temperature (mouse [3]): temperature elevation | hypoxia KCN test result (histotoxic hypoxia): result = 50; % | occurrence of morphine tolerance (TFL) (morphine tolerance [4]; alphadolone emulsion 250 mg/kg sc co-administered with M-SR): prevented the occurrence of morphine tolerance; also recorded: no significant tolerance occurred | sedation (morphine tolerance [4]; alphadolone emulsion 250 mg/kg sc with M-SR): did not cause sedation; also recorded: caused no sedation

etanercept
microglia activation and proinflammatory cytokine production (morphine tolerant rats): inhibited | morphine tolerance (morphine tolerant rats): reversed the morphine tolerance

CC(=O)[C@H]1CC[C@H]2[C@@H]3CC=C4C[C@@H](O)CC[C@]4(C)[C@H]3CC[C@]12C [pregnenolone]
prevention of morphine tolerance (morphine tolerance [1]): do prevent morphine tolerance

CN1CC[C@]23c4c5ccc(O)c4O[C@H]2[C@@H](O)C=C[C@H]3[C@H]1C5 [M-IR, morphine]
tail flick latency response to M-IR, after M-SR treatment (morphine tolerance [4]; M-IR 6.25 mg/kg ip, after M-SR 125 mg/kg/day sc with vehicle emulsion, mean±SEM, P<0.001): 20.3±4.8 % MPE | tail flick latency response to M-IR, pre treatment (morphine tolerance [4]; M-IR 6.25 mg/kg ip, before M-SR treatment, mean±SEM): 89.6±2.5 % MPE
